In US20200247761A1, “SULFONAMIDE OR AMIDE COMPOUNDS, COMPOSITIONS AND METHODS FOR THE PROPHYLAXIS AND/OR TREATMENT OF AUTOIMMUNE, INFLAMMATION OR INFECTION RELATED DISORDERS” (TAIWANJ PHARMACEUTICALS CO., LTD, priority 2017, published 2020):
Where two headings read alike, the source gives them in different places.

Tests used:
Assay type in all cases: cell-based
[1] = target: T1, Toll-like receptor 4 (TLR4) (Homo sapiens, UniProt O00206); assay: TLR4 activity: NF-κB-inducible SEAP reporter in LPS-stimulated TLR4-expressing HEK293 cells; details: for inhibition at 10 µM: Test Con. 10 μM, LPS 10 ng/ml, 16-24 hours, HEK293 cells expressing TLR4, read-out: TLR-4 inhibition (%) mean; for activity towards TLR-4 (in words): summary of Table 1 (10, 20 or 100 μM)
T1 construct: expressed in transfected cells; host or cells: HEK293 cells engineered to express TLR4
T1 sequence (O00206 24-839, species assumed): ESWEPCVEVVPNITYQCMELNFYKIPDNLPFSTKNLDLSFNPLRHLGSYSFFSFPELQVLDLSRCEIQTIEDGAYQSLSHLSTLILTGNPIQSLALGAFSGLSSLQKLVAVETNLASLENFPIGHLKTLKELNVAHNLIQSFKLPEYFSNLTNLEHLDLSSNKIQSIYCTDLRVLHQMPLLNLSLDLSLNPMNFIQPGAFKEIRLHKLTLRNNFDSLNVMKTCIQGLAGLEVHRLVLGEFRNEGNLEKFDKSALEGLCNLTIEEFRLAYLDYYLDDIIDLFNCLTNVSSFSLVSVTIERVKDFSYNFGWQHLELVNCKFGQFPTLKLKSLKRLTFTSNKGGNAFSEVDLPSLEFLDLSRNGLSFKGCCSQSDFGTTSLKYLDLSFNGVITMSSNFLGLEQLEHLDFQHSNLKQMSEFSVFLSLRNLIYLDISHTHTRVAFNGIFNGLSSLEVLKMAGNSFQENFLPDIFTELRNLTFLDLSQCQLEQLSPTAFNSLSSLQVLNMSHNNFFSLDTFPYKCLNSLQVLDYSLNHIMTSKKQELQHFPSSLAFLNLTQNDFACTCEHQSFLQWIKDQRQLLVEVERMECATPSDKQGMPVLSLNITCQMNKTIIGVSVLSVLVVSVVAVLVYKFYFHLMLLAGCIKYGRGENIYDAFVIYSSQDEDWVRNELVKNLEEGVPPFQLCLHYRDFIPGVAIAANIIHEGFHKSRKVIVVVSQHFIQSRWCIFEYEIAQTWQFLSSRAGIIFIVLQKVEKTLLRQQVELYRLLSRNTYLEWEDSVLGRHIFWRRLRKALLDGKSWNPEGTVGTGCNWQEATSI
T1 sequence (Q9Y6Y9 17-160 partner limits assumed, species assumed): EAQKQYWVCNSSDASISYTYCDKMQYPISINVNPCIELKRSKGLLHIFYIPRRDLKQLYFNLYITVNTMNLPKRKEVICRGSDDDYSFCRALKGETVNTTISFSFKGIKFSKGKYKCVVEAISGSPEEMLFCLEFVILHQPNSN
Procedure: Stimulation of the Toll-like receptor 4 (TLR4) was determined by assessing activation of the transcription factor NF-κB in HEK293 cells that were engineered to express TLR4. Assessment of TLR4 stimulation was based on the use of an NE-κB-inducible secreted alkaline phosphatase (SEAP) reporter system in which the SEAP reporter was under the control of a promoter inducible by NF-κB. Thus, the degree of activation of TLR4 can be indirectly quantified spectrophotometrically by measuring the amount of the SEAP reporter that is produced.
The TLR4-expressing cells were plated in HEK-Blue Detection (Invivogen, San Diego, Calif.) medium in a 96-well plate (25,000-50,000 cells/well). The cells were stimulated with lipopolysaccharides (LPS) alone or in combination with the compound of Example 1. Cell culture without LPS and the compound of Example 1 was defined as baseline control. To test whether the compound of Example 1 could block that activation of the TLR4, the cells were treated with the designated compound (10, 20 or 100 μM) and LPS (final conc. 10 ng/ml/well). After an incubation period (16-24 hours) at 37° C. in a CO2 incubator, the signals of individual samples in 96-well plates were detected at O.D.650 nm with a Molecular Devices SpectraMax i3 Imaging Cytometer. The TLR4 activity was expressed in percentage of LPS alone-stimulated cells minus baseline control.

[2] = test system: HEK293 cells; assay: Cell viability (MTT) of the TLR4-expressing HEK293 cells; details: Test Con. 10 μM, percentage of viable LPS-stimulated cells
Procedure: (§1) RAW264.7 cells (1.6×10^5 cells/well) or HEK 293 cells (2.5-5.0×10^4 cells/well) were seeded in 96-well plate overnight and treated with different compounds for 16-24 hours. Cells' growth were determined by MTT-based colorimetric assays. Viability of the test cells treated with vehicle (0.5% DMSO) only was defined as 100% viable. Survival of cells after treatment with DETDs was calculated using the following formula: viable cell number (%)=OD570 (treated cell culture)/OD570 (vehicle control)×100.
(§2) The cell viability assay was performed by the MTT method. Cells were incubated with 45 μl of 5 mg/ml MTT for 1 hour at 37° C., and 150 μl of DMSO was added at the end of culture to dissolve the crystals. The signals of individual samples in 96-well plates were detected at O.D.570 nm with a Molecular Devices SpectraMax i3 Imaging Cytometer. Cell viability was expressed in percentage of viable LPS-stimulated cells.

[3] = test system: mTNF-α secretion from LPS-stimulated RAW264.7 monocytes; assay: LPS induced mTNF-α release from RAW264.7 cells (ELISA); details: Mus musculus
Procedure: To confirm whether the inhibitory effect of the selected compounds of example 2.1 (i.e., Compounds 12, 15, 19, 20, 22, 24, 28, 30, 32, 34, 36, 38, 40, 42, 44, 45, 49, 50, 52 and 70) translates to anti-inflammation, they were further tested to see if any of them may suppress mTNF-α secretion from lipopolysaccharide (LPS)-stimulated RAW264.7 monocytes.
To this purpose, RAW264.7 cells were seeded at 1.6×10^5 cells/well into 96-well culture plates. Test compounds (i.e., Compounds 12, 15, 19, 20, 22, 24, 28, 30, 32, 34, 36, 38, 40, 42, 44, 45, 49, 50, 52 and 70, respectively at 10 μM) were added into the culture plates in triplicate and co-cultured at 37° C. in 5% CO2 for 30 minutes. LPS (final conc. 10 ng/ml/well) was then added into the culture plates and the cells were incubated for another 4 hours. At the end of culture, the cultured media were harvested for mTNF-α quantification by ELISA with commercial assay kits (R&D Systems, Minneapolis, Minn.) following the manufacturer's protocol. Signals of the individual samples in 96-well plates were detected at O.D.450 nm/570 nm with a Molecular Devices SpectraMax i3 Imaging Cytometer. The mTNF-α activity was expressed in percentage of viable LPS-stimulated cells without test compound treatment.

[4] = test system: RAW264.7 cells; assay: Cell viability (MTT) of RAW264.7 cells; details: for Cell Viability (%) mean: Test Con. 10 μM, MTT, RAW264.7 cells, percentage of viable LPS-stimulated cells; for toxic activity toward RAW264.7 cells (in words): Table 2, 10 μM
Procedure: as §1
as §2, with “method, in which cells” for “method. Cells”

[5] = RAW264.7, Table 2, 10 μM, read-out: inhibition of LPS induced mTNF-α release from RAW264.7 cells
[6] = Test Con. 10 μM, LPS 10 ng/ml, 4 hours, RAW264.7 cells, read-out: mTNF-α inhibition (%) mean

| Structure (SMILES) | inhibition at 10 µM [1] [%] | activity towards TLR-4 (in words) [1] | Cell Viability (%) mean [2] [%] | inhibition at 10 µM [3, 5] [%] | inhibition at 10 µM [3, 6] [%] | Cell Viability (%) mean [4] [%] | toxic activity toward RAW264.7 cells (in words) [4] |
| --- | --- | --- | --- | --- | --- | --- | --- |
| C=CC(=O)N(c1ccc(F)cc1Cl)S(=O)(=O)c1ccccc1S(C)(=O)=O [Compound 32] | 100 | strong antagonist | 84.5 | 85 to 100 | 97.5 | 48.3 |  |
| C=CC(=O)N(c1ccc(F)cc1Cl)S(=O)(=O)N1CCCC1 [Compound 50] | 76 | moderate inhibitory activity | 85.1 | 85 to 100 | 86.1 | 97.6 | negligible to no toxic activity |
| C=CC(=O)c1ccccc1S(=O)(=O)N(C)c1ccccc1 [Compound 70] | 100 | strong antagonist | 79.7 | 85 to 100 | 100 | 69.6 |  |
| C=CC(=O)N(c1ccc(F)cc1Cl)S(=O)(=O)c1c(C)noc1C [Compound 34] | 100 | strong antagonist | 63.0 | 85 to 100 | 98.5 | 53.9 |  |
| C=CC(=O)N(C1CC1)S(=O)(=O)c1ccc(F)cc1Cl [Compound 40] | 100 | strong antagonist | 85.5 | 85 to 100 | 99.7 | 93.5 | negligible to no toxic activity |
| C=CC(=O)N(c1ccc(F)cc1Cl)S(=O)(=O)c1ccccc1 [Compound 19] | 100 | strong antagonist | 80 | 85 to 100 | 96.1 | 38.1 |  |
